Tests used:
SHP mRNA = experiment: In vivo FXR assay: SHP mRNA in mice liver by real-time PCR; conditions: CDAHFD-fed C57BL/6J mice, single oral dose 100, 30 and 10 mg/kg, liver four hours after administration
Description: (§1) Test compounds were orally administered to 7-week old male C57BL/6J mice (Nippon Charles River Co., Ltd., Yokohama City, Kanagawa, Japan), that were administered CDAHFD (#A06071302, Research Diets, 20 Jules Lane, New Brunswick, NJ, USA) consisting 60 kcal% fat and 0.1% methionine by weight for 7 days. After four hours of administration, the liver was removed, and total RNA was extracted using a Pure Link RNA Mini Kit (Invitrogen, Thermo Fisher Scientific K. K., Minato-ku, Tokyo, Japan). The concentration of total RNA was measured using Micro Sample Spectrophotometer (SimpliNano, GE Healthcare UK Ltd, Amersham Place Little Chalfont Buckinghamshire, HP7 9NA UK), and cDNA was synthesized using ReverTra Ace qPCR RT Master Mix (Toyobo Co., Ltd., Osaka City, Osaka, Japan). Real-time PCR was performed using a CFX96 Touch Real-Time PCR Analysis System (CFX Manager, Bio-Rad, 1000 Alfred Nobel Drive, Hercules, CA, USA), and the mRNA expression levels of SHP and CYP7A1, the target genes of FXR, were measured using the intercalator method.
(§2) S4. In vitro, in vivo assay, and selectvity.
(§3) To directly evaluate the in vitro agonist activity towards FXR, test compounds were evaluated in CHO cells transfected with FXR responsive luciferase reporter (Nuclear Receptor & In Vitro Toxicology Solutions, Indigo Biosciences, State College, PA, USA). […]

CYP7A1 = experiment: In vivo FXR assay: CYP7A1 in mice liver by real-time PCR; conditions: CDAHFD-fed C57BL/6J mice, single oral dose 30 and 10 mg/kg, liver four hours after administration
Description: as §1, §2, §3

SMILES | Induction of SHP mRNA in the liver (SHP mRNA) | Repression of CYP7A1 in the liver (CYP7A1)
COc1cc(Cl)cc(N(CC23CCC(c4ccc(OC)c(C#N)c4)(CC2)CC3)C(=O)c2ccncc2C)c1 [Compound 20p] | dose-dependently induced SHP mRNA in the liver | decreased CYP7A1 in the liver
COc1ccc(C23CCC(CN(C(=O)c4ccncc4C)c4cc(Cl)cc(Cl)c4)(CC2)CC3)cc1C#N [Compound 20q] | dose-dependently induced SHP mRNA in the liver | decreased CYP7A1 in the liver

Reference: publication PMC8080777, “Discovery, optimization, and evaluation of non-bile acid FXR/TGR5 dual agonists” (Scientific Reports, 2021)
